Measurements as given in patent publication US20110144345A1, “SULFOXYIMINO-SUBSTITUTED BENZOYL DERIVATIVE AND HERBICIDE” (NIPPON SODA CO., LTD., priority 2008, published 2011).

Assays:
Echinochloa crus-galli = assay: Paddy pot test, herbicidal effect on Echinochloa crus-galli; format: in vivo; set-up: scale not given here; conditions: Screening, 63 g/ha, applied at 1.5-leaf stage, examined after 3 weeks
Protocol: (§1) Plastic pots having an area of 100 cm^2 and a depth of 10 cm were filled with paddy soil which is puddled by adding water, and seeds of Echinochloa crus-galli and Scirpus juncoides were planted in the pots. After seeding, rice plants at the 2.5-leaf stage were transplanted and the pots were filled with water. The rice plants were grown in a greenhouse. […] The herbicidal effects and harmful effects on the rice plants were examined after 3 weeks. Herbicidal effects were examined according to the examination criteria described below and were represented by the herbicidal index. [table] […] [formula]

Scirpus juncoides = assay: Paddy pot test, herbicidal effect on Scirpus juncoides; format: in vivo; set-up: scale not given here; conditions: Screening, 63 g/ha, examined after 3 weeks
Protocol: as §1

rice plants = assay: Paddy pot test, harmful effects on transplanted rice plants; format: in vivo; set-up: scale not given here; conditions: Screening, 63 g/ha, applied at Echinochloa crus-galli 1.5-leaf stage, examined after 3 weeks
Protocol: as §1

SMILES	Rice (harmful effects on the rice plants, index) (rice plants)	melting point	Echinochloa crus-galli (herbicidal index) (Echinochloa crus-galli)	Scripus juncoides (herbicidal index) (Scirpus juncoides)
CCc1ccc(C(=O)c2cnn(C)c2O)c(Cl)c1N=S1(=O)CCCCC1 [Example 188]	1	–	10	7
CC(C)c1ccc(C(=O)C2=C(O)CCCC2=O)c(Cl)c1N=S1(=O)CCCCC1 [Example 209]	0	–	7	6
COc1ccc(C(=O)c2cnn(C)c2OCc2ccc3ccccc3c2)c(Cl)c1N=S1(=O)CCCC1 [Example 129]	0	–	7	8
COC(=O)c1ccc(C(=O)C(C#N)C(=O)C2CC2)c(Cl)c1N=S1(=O)CCCCC1 (centres unmarked) [Example 165]	0	–	5	8
COc1c(N=S2(=O)CCCCC2)cccc1C(=O)c1cnn(C)c1OCc1ccc2ccccc2c1 [Example 132]	0	–	6	8
COc1ccc(C(=O)c2cnn(C)c2OCC(=O)c2ccc([N+](=O)[O-])cc2)c(Cl)c1N=S1(=O)CCCCC1 [Example 114]	0	–	10	8
COC(=O)c1ccc(C(=O)c2cnn(C)c2OC(=O)SC)c(Cl)c1N=S1(=O)CCCCC1 [Example 152]	0	–	10	8
C=C(C)c1ccc(C(=O)c2cnn(C)c2OC(=O)SC)c(Cl)c1N=S1(=O)CCCCC1 [Example 207]	0	–	6	7
COc1ccc(C(=O)c2cnn(C)c2OC(=O)SC)c(OC)c1N=S1(=O)CCCCC1 [Example 183]	0	–	7	6
COc1ccc(C(=O)c2cnn(C)c2OCc2ccc3ccccc3c2)c(Cl)c1N=S(C)(=O)Cc1ccccc1 (centres unmarked) [Example 121]	0	–	7	7
COc1ccc(C(=O)C2=C(O)CCCC2=O)c(Cl)c1N=S(C)(=O)Cc1ccccc1 (centres unmarked) [Example 120]	0	–	8	5
COc1ccc(C(=O)c2cnn(C)c2OCc2ccc3ccccc3c2)c(Cl)c1N=S(C)(C)=O [Example 151]	0	–	6	5
COc1ccc(C(=O)c2cnn(C)c2O)c(Cl)c1N=S(C)(=O)c1ccccc1 (centres unmarked) [Example 118]	0	–	7	8
COC(=O)c1ccc(C(=O)c2cn(C(=O)SC)n(C)c2=O)c(Cl)c1N=S1(=O)CCCCC1 [Example 153]	0	–	7	8
CCS(=O)(CC)=Nc1c(C(=O)OC)ccc(C(=O)C2=C(O)CCCC2=O)c1Cl [Example 148]	0	–	6	8
CCCSC(=O)Oc1c(C(=O)c2ccc(C(=O)OC)c(N=S3(=O)CCCCC3)c2Cl)cnn1C [Example 202]	0	–	7	7
Cn1ncc(C(=O)c2ccc(CO)c(N=S3(=O)CCCCC3)c2Cl)c1O [Example 117]	0	–	5	8
C#Cc1ccc(C(=O)C2=C(O)CCCC2=O)c(Cl)c1N=S1(=O)CCCCC1 [Example 173]	0	–	5	7
COc1ccc(C(=O)c2cnn(C)c2OS(=O)(=O)c2ccc(C)cc2)c(Cl)c1N=S1(=O)CCCCC1 [Example 106]	0	–	10	8
C#Cc1ccc(C(=O)c2cnn(C)c2O)c(Cl)c1N=S1(=O)CCCCC1 [Example 166]	0	–	6	8
CC(=O)OCc1ccc(C(=O)c2cnn(C)c2O)c(Cl)c1N=S1(=O)CCCCC1 [Example 83]	–	64 to 68 °C	–	–
COCCOCOc1ccc(C(=O)c2cnn(C)c2O)c(Cl)c1N=S1(=O)CCCCC1 [Example 259]	–	77 to 79 °C	–	–
COC(=O)c1ccc(C(=O)c2cnn(C)c2O)c(Br)c1N=S1(=O)CCOCC1 [Example 69]	–	158 to 164 °C	–	–
Cn1ncc(C(=O)c2cccc(N=S3(=O)CCCCC3)c2Cl)c1O [Example 39]	–	177 to 179 °C	–	–
CSCOc1ccc(C(=O)c2cnn(C)c2O)c(Cl)c1N=S1(=O)CCCCC1 [Example 238]	–	112 to 114 °C	–	–
COc1ccc(C(=O)c2cnn(C(C)(C)C)c2O)c(Cl)c1N=S1(=O)CCCCC1 [Example 88]	–	200 to 202 °C	–	–

Further lines, with some results ahead:

Rice (harmful effects on the rice plants, index) (rice plants)	melting point	SMILES	Echinochloa crus-galli (herbicidal index) (Echinochloa crus-galli)	Scripus juncoides (herbicidal index) (Scirpus juncoides)
0	–	COc1ccc(C(=O)c2cnn(C)c2OCC(=O)c2ccccc2)c(Cl)c1N=S1(=O)CCCCC1 [Example 116]	7	8
0	–	COc1ccc(C(=O)c2cnn(C)c2OCc2ccc3ccccc3c2)c(F)c1N=S1(=O)CCCCC1 [Example 113]	7	6
0	–	COc1ccc(C(=O)c2cnn(C)c2OC(=O)c2ccccc2)c(Cl)c1N=S1(=O)CCCCC1 [Example 138]	10	8
0	–	COc1ccc(C(=O)c2cnn(C)c2OCc2ccc3ccccc3c2)c(Cl)c1N=S(C)(=O)c1ccccc1 (centres unmarked) [Example 122]	10	6
0	–	CCCS(=O)(CCC)=Nc1c(OC)ccc(C(=O)c2cnn(C)c2O)c1Cl [Example 145]	10	8
0	–	Cc1ccc(C(=O)c2c(C)nn(C)c2OCc2ccc3ccccc3c2)c(C)c1N=S1(=O)CCCCC1 [Example 111]	6	8
0	–	COc1ccc(C(=O)c2cn(C(=O)SC)n(C)c2=O)c(Cl)c1N=S1(=O)CCCCC1 [Example 155]	8	8
0	–	COc1ccc(C(=O)c2cnn(C)c2OC(=O)SC)c(Cl)c1N=S(C)(=O)C(C)C (centres unmarked) [Example 211]	6	8
0	–	CCS(=O)(CC)=Nc1c(OC)ccc(C(=O)c2cnn(C)c2OCc2ccc3ccccc3c2)c1Cl [Example 248]	5	8
0	–	C=C(C)c1ccc(C(=O)c2cnn(C)c2O)c(Cl)c1N=S1(=O)CCCCC1 [Example 204]	5	7
0	–	CCN(CC)CC.COc1ccc(C(=O)c2cnn(C)c2O)c(Cl)c1N=S1(=O)CCCCC1 [Example 137]	10	8
0	–	C=Cc1ccc(C(=O)c2cnn(C)c2O)c(Cl)c1N=S1(=O)CCCCC1 [Example 108]	10	8
0	–	COC(=O)n1cc(C(=O)c2ccc(OC)c(N=S3(=O)CCCCC3)c2Cl)c(=O)n1C [Example 105]	10	8
0	–	COC(=O)c1ccc(C(=O)c2c(C3CC3)nn(C)c2O)cc1N=S1(=O)CCCCC1 [Example 102]	6	6
0	–	CSC(=O)Oc1c(C(=O)c2ccc(OC(F)F)c(N=S3(=O)CCCCC3)c2Cl)cnn1C [Example 185]	10	7
–	179 to 181 °C	COc1ccc(C(=O)c2cnn(C)c2O)c([N+](=O)[O-])c1N=S1(=O)CCCCC1 [Example 76]	–	–
–	201 to 203 °C	CCn1ncc(C(=O)c2ccc(C(=O)OC)c(N=S3(=O)CCCCC3)c2Cl)c1O [Example 30]	–	–
–	145 to 147 °C	COc1ccc(C(=O)c2c(C3CC3)nn(C)c2O)c(Cl)c1N=S1(=O)CCCCC1 [Example 56]	–	–
–	100 to 104 °C	CC(=O)c1ccc(C(=O)c2cnn(C)c2O)c(Cl)c1N=S1(=O)CCCCC1 [Example 255]	–	–
–	188 to 190 °C	Cn1ncc(C(=O)c2ccc(OCC3CC3)c(N=S3(=O)CCCCC3)c2Cl)c1O [Example 215]	–	–
